The target in experiment [1] is T1, Caspase-1 (Homo sapiens, UniProt P29466).
T1 sequence (P29466 whole entry): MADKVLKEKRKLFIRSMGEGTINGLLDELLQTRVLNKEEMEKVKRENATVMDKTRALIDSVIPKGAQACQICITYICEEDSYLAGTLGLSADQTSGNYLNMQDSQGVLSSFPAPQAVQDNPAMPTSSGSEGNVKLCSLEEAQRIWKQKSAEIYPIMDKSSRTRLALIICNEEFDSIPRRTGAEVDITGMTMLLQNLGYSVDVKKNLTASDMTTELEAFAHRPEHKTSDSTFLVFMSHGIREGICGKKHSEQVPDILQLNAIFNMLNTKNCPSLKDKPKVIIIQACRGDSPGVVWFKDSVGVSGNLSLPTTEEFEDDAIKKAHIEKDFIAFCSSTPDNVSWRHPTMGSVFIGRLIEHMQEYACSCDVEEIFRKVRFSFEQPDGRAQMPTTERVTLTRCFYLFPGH
The experiment can be described thus: Inhibition of human recombinant N-terminal His-tagged DTT-activated caspase-1 expressed in Escherichia coli using Ac-WEHD-AMC as substrate preincubated for 30 mins followed by substrate addition by fluorescence assay.

The target in another experiment is T2, Caspase-4 (Homo sapiens, UniProt P49662).
T2 sequence (P49662 whole entry): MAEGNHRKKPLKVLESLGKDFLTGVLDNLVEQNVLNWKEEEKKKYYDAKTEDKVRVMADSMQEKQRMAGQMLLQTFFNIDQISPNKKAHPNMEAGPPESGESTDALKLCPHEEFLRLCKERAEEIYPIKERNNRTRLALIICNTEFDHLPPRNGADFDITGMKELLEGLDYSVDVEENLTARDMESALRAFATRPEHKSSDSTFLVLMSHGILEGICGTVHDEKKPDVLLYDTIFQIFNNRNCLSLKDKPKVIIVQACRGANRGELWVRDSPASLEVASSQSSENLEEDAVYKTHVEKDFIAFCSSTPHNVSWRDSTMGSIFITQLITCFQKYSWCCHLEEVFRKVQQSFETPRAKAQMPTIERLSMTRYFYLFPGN
The experiment is described as follows: Inhibition of human recombinant N-terminal His-tagged DTT-activated caspase-4 expressed in Escherichia coli using Ac-LEVD-AMC as substrate preincubated for 30 mins followed by substrate addition by fluorescence assay.

Experiment [2] addresses T3, Caspase-5 (Homo sapiens, UniProt P51878).
T3 sequence (P51878 whole entry): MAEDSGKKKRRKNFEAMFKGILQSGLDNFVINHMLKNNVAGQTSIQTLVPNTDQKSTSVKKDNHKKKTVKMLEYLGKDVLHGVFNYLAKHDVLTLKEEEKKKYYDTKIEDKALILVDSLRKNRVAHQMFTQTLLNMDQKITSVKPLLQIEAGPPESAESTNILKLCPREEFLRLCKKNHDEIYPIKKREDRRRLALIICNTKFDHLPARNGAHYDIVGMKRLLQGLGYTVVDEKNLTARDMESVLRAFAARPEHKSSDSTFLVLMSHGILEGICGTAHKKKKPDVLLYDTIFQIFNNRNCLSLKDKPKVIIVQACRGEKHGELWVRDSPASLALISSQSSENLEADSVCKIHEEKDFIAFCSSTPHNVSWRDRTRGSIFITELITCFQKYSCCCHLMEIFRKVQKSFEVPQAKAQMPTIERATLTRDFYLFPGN
The experiment is described as follows: Inhibition of human recombinant DTT-activated caspase-5 expressed in Escherichia coli using Ac-WEHD-AMC as substrate preincubated for 30 mins followed by substrate addition by fluorescence assay.

The target of experiment [3] is T1, Caspase-1. The experiment is described as follows: Inhibition of human recombinant DTT-activated caspase-1 expressed in Escherichia coli using WEHD-AMC as substrate after 30 mins by fluorescence assay. The note with it: read-out: Ki(app).
For experiment [4], the target named is T3, Caspase-5. The experiment can be described thus: Inhibition of human recombinant DTT-activated caspase-5 expressed in Escherichia coli using Ac-WEHD-AMC as substrate preincubated for 15 mins followed by substrate addition by fluorescence assay.
In experiment [5] the target is T3, Caspase-5. The experiment is described as follows: Inhibition of human recombinant DTT-activated caspase-5 expressed in Escherichia coli using Ac-WEHD-AMC as substrate preincubated for 45 mins followed by substrate addition by fluorescence assay.

Bounds are passed on as bounds.

In general, IC50 refers to the concentration that inhibits the measured activity by half. Consider `C[C@]12C=CC(=O)C=C1CC[C@@H]1C2=CC[C@]2(C)[C@@H](C(=O)CN3CCN(c4cc(N5CCCC5)nc(N5CCCC5)n4)CC3)CC[C@@H]12`, for which the Ki on Caspase-1 [1] was found to be 50 nM; at Caspase-4, 337 nM; at Caspase-5 [2] it was 210 nM; at Caspase-1 [3], 50 nM. In addition, the IC50 on Caspase-4 turned out to be 909 nM; at Caspase-5 [2], 910 nM.
As to `c1cncc(CN2CCN(c3cc(N4CCCC4)nc(N4CCCC4)n3)CC2)c1`, the IC50 came to 1870 nM on Caspase-1 [1]; 2350 nM at Caspase-4; 254 nM on Caspase-5 [2]; 2560 nM at Caspase-5 [4]; 155 nM at Caspase-5 [5]. Besides, the Ki is 534 nM at Caspase-1 [1], 870 nM on Caspase-4 and 59 nM on Caspase-5 [2].
In the case of `FC(F)(F)c1cc(CN2CCN(c3cc(N4CCCC4)nc(N4CCCC4)n3)CC2)cc(C(F)(F)F)c1`, the figures for the concentration for half-maximal inhibition (IC50) on Caspase-1 [1], at Caspase-4 and on Caspase-5 [2] were 706 nM, greater than 5000 nM and 210 nM, respectively. For the same molecule, the values for the Ki at Caspase-1 [1] and at Caspase-5 [2] were 202 nM and 48 nM, respectively.
On to `O=[N+]([O-])c1ccccc1CN1CCN(c2cc(N3CCCC3)nc(N3CCCC3)n2)CC1`, for which the half-maximal inhibitory concentration (IC50) on Caspase-1 [1] was found to be 796 nM; at Caspase-4, 721 nM; at Caspase-5 [2], 105 nM. The Ki on Caspase-1 [1] amounted to 227 nM; at Caspase-4 it was 267 nM; on Caspase-5 [2] it was 24 nM.
For the molecule `c1c(N2CCCC2)nc(N2CCCC2)nc1N1CCNCC1`, the concentration for half-maximal inhibition (IC50) worked out at 455 nM on Caspase-1 [1], 560 nM on Caspase-4 and 205 nM on Caspase-5 [2]. Also, the Ki stood at 130 nM at Caspase-1 [1], 207 nM on Caspase-4 and 47 nM at Caspase-5 [2].
As for `c1ccc(CN2CCN(c3cc(N4CCCC4)nc(N4CCCC4)n3)CC2)cc1`, the results for the half-maximal inhibitory concentration (IC50) at Caspase-1 [1], on Caspase-4 and at Caspase-5 [2] were 700 nM, greater than 5000 nM and 178 nM, respectively. The values for the Ki at Caspase-1 [1] and at Caspase-5 [2] were 200 nM and 41 nM, respectively.
Take `COc1cccc(CN2CCN(c3cc(N4CCCC4)nc(N4CCCC4)n3)CC2)c1`: the figures for the IC50 on Caspase-1 [1], on Caspase-4 and at Caspase-5 [2] were 262 nM, 746 nM and 482 nM, respectively. Moreover, the values for the Ki at Caspase-1 [1], on Caspase-4 and at Caspase-5 [2] were 75 nM, 276 nM and 111 nM, respectively.
For the molecule `COc1cc(CN2CCN(c3cc(N4CCCC4)nc(N4CCCC4)n3)CC2)cc(OC)c1`, the results for the IC50 at Caspase-1 [1], at Caspase-4 and on Caspase-5 [2] were 173 nM, 400 nM and 149 nM, respectively. Further, the Ki is 49 nM on Caspase-1 [1], 148 nM on Caspase-4 and 34 nM on Caspase-5 [2].
`c1ccc(CCN2CCN(c3cc(N4CCCC4)nc(N4CCCC4)n3)CC2)cc1`: the IC50 came out at 56 nM at Caspase-1 [1], 21 nM at Caspase-4 and 71 nM on Caspase-5 [2]. For the same molecule, the Ki at Caspase-1 [1] turned out to be 16 nM; at Caspase-4, 8 nM; at Caspase-5 [2], 16 nM.
`c1cc(CN2CCN(c3cc(N4CCCC4)nc(N4CCCC4)n3)CC2)ccn1`: the IC50 on Caspase-1 [1] is 1060 nM; on Caspase-4, 1060 nM; on Caspase-5 [2] it was 146 nM. For the same molecule, the results for the Ki on Caspase-1 [1], at Caspase-4 and on Caspase-5 [2] were 303 nM, 393 nM and 34 nM, respectively.
Consider `FC(F)(F)c1ccc(CN2CCN(c3cc(N4CCCC4)nc(N4CCCC4)n3)CC2)cc1`, for which the IC50 at Caspase-1 [1] came out at 639 nM; on Caspase-4, 1520 nM; at Caspase-5 [2], 586 nM. Further, the results for the Ki on Caspase-1 [1], on Caspase-4 and on Caspase-5 [2] were 183 nM, 563 nM and 135 nM, respectively.
For `O=C(c1ccccc1)c1ccc(CN2CCN(c3cc(N4CCCC4)nc(N4CCCC4)n3)CC2)cc1`, the concentration for half-maximal inhibition (IC50) at Caspase-1 [1] came out at 205 nM; at Caspase-4, 320 nM; on Caspase-5 [2] it was 123 nM. In addition, the Ki amounted to 59 nM on Caspase-1 [1], 119 nM on Caspase-4 and 28 nM at Caspase-5 [2].
As to `c1c(N2CCCC2)nc(N2CCCC2)nc1N1CCN(CC2CCCCC2)CC1`, the IC50 at Caspase-1 [1] stood at 95 nM; at Caspase-4 it was 826 nM; on Caspase-5 [2], 254 nM. Further, the Ki is 27 nM on Caspase-1 [1], 306 nM at Caspase-4 and 59 nM on Caspase-5 [2].
As to `O=[N+]([O-])c1ccc(CN2CCN(c3cc(N4CCCC4)nc(N4CCCC4)n3)CC2)cc1`, the IC50 came to 450 nM at Caspase-1 [1], 580 nM on Caspase-4 and 430 nM at Caspase-5 [2]. For the same molecule, the Ki worked out at 129 nM on Caspase-1 [1], 215 nM on Caspase-4 and 99 nM at Caspase-5 [2].

(Values after ChEMBL document CHEMBL3864159, “Variation of the aryl substituent on the piperazine ring within the 4-(piperazin-1-yl)-2,6-di(pyrrolidin-1-yl)pyrimidine scaffold unveils potent, non-competitive inhibitors of the inflammatory caspases” (Bioorg Med Chem Lett, 2016).)
